Data: publication PMC11551755, “Structure-based discovery of first inhibitors targeting the helicase activity of human PIF1” (Nucleic Acids Research, 2024)

Experiments:
[1] = biological target: T1, FLhPIF1 (full length human PIF1) (Homo sapiens, UniProt Q9H611); experiment: radiometric strand displacement helicase assay, no pre-incubation; assay type: biochemical; conditions: for inhibition at 1000 µM: 1 mM single point, gel-based DNA unwinding assay, four repeats (S4 n=3); for IC50: 0.0078–2 mM compound, 10 nM FLhPIF1, 0.1 nM DNA substrate, n = 3, read-out: IC50 for inhibition of FLhPIF1 helicase activity; for fold increase in inhibition at 1 mM relative to compound 1: 1 mM single point helicase screen
T1 construct: Full length human PIF1 (FLhPIF1) was expressed and purified as a His-SUMO fusion; His-SUMO (cleaved yes); made in house; 'following similar protocols' to hPIF1HD (ArcticExpress BL21(DE3) E. coli)
T1 sequence (Q9H611 1-641): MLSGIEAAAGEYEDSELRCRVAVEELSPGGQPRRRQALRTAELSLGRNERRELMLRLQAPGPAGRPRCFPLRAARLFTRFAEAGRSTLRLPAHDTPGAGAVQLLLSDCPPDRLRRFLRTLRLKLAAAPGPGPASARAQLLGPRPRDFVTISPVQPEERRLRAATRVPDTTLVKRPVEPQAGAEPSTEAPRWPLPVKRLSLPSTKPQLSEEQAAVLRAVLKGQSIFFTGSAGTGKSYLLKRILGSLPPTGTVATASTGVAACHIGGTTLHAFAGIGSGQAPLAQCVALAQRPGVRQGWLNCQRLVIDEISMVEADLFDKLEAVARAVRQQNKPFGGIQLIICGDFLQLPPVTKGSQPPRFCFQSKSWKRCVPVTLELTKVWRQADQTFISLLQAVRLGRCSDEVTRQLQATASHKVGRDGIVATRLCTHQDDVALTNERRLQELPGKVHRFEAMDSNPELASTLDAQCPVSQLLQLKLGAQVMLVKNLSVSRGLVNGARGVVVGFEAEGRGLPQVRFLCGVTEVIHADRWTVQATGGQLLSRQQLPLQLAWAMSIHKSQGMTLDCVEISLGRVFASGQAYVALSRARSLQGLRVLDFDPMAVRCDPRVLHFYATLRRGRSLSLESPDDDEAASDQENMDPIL
Procedure: Helicase activity was assayed using a radiometric strand displacement assay employing a partially single- and double-stranded substrate generated by annealing two oligonucleotides: 5′-(T)55-[…] and 5′-[…], as described previously ([19],[28]). […] SMIs (100 mM stocks in DMSO) were assayed at up to 2 mM without pre-incubation with FLhPIF1, unless otherwise stated. […] Dried gels were exposed to phosphorimaging plates (Fujifilm) for imaging and quantification (Fuji FLA3000, image gauge V3.3 software). IC50 values were analysed by non-linear regression (variable slope) using GraphPad Prism.

[2] = biological target: T2, human UPF1 (hUPF1) helicase (Homo sapiens, UniProt Q92900); experiment: helicase assay after pre-incubation of SMI with hUPF1; assay type: biochemical; conditions: for IC50: 2 h pre-incubation at 22°C with 100 nM hUPF1, then 1:10 dilution into helicase assay, read-out: IC50 for dsDNA unwinding by hUPF1 following pre-incubation
T2 construct: Full-length human UPF1 helicase was expressed and purified as described previously; made in house
T2 sequence (Q92900 1-1129): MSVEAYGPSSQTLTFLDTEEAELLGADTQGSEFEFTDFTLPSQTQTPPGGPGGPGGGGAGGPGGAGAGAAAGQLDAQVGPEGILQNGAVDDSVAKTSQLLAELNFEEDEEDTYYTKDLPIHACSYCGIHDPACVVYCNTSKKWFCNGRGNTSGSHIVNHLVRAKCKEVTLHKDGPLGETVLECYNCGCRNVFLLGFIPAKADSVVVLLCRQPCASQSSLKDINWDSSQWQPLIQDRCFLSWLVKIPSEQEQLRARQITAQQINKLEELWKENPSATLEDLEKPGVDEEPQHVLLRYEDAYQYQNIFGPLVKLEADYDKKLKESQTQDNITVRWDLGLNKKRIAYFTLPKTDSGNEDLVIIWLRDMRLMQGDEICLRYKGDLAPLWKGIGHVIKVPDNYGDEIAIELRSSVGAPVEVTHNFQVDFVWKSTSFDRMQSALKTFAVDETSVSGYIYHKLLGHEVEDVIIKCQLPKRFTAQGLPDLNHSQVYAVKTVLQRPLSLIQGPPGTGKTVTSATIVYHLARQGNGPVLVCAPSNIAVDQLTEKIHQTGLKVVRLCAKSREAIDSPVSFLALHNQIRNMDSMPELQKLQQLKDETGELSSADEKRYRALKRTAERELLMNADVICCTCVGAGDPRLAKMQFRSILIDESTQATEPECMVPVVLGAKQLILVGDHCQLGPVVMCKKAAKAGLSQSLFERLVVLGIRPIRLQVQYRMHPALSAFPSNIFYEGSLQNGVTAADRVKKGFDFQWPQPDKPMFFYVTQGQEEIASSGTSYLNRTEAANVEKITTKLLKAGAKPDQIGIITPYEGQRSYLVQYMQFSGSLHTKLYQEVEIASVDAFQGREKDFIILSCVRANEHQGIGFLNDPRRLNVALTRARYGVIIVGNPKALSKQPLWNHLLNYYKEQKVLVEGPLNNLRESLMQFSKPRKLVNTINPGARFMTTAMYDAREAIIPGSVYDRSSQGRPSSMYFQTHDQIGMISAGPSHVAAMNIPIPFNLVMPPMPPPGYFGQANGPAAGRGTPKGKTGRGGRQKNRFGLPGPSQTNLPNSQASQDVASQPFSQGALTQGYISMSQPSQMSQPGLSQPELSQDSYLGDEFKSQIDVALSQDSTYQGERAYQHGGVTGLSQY
Procedure: Full-length human UPF1 helicase was expressed and purified as described previously ([36]).
In parallel, IC50 values for inhibition of human UPF1 (hUPF1) helicase activity by the SMIs were also determined under the same conditions. UPF1-like SF1B helicases are the most closely related family of helicases to PIF1, with significant structural and mechanistic similarity ([52]).
Figure 6. SMI IC50 for dsDNA unwinding determined following pre-incubation. SMIs (0.0078–2 mM SMI) were incubated for 2 h at 22°C (100 nM FLhPIF1 or hUPF1) before dilution (1:10) in the standard helicase assay (0.1 nM DNA substrate). For 1D and 6, structures, electrophoresis of FLhPIF1 reaction product and graphs for IC50 value determination are shown. The graphed data include the activity of SMIs towards hUPF1 and IC50 values obtained are given. See Supplementary Figure S14 for the complete data set. TEXT PRINTED IN THE PICTURE: 1D: IC50 (μM): PIF1: 978 ± 221; IC50 (μM): UPF1: N.D. | 6: IC50 (μM): PIF1: 79.4 ± 16; IC50 (μM): UPF1: 1750 ± 426
Supplementary Figure 14. IC50 DNA unwinding determined following 2 hours pre-incubation. […] The assay procedure and reaction conditions for each helicase were identical (see methods, main manuscript). The figure complements main manuscript Figure 6. […] The reason for this is unclear.

SMILES	inhibition at 1000 µM [1]	IC50 ([1]; no pre-incubation)	IC50 [2]	fold improvement of helicase IC50 compared to progenitor 1F ([1]; no pre-incubation)	fold difference in sensitivity, hUPF1 vs FLhPIF1 IC50 ([2]; 2 h pre-incubation)	inhibition of FLhPIF1 helicase activity in 1 mM single-point screen ([1]; 1 mM)	fold increase in inhibition at 1 mM relative to compound 1 [1]
CC(=O)c1ccc(-c2csc(N)n2)cc1 [Compound 2]	79.1 ± 5.2%	165 ± 75 µM	445 ± 132 µM	–	–	–	–
N#Cc1ccc(-c2csc(N)n2)cc1 [Compound 5]	84 ± 4.1%	105 ± 6 µM	289 ± 127 µM	–	–	–	–
Nc1nc(-c2ccc(C(=O)c3ccccc3)cc2)cs1 [Compound 6]	82.3 ± 6.6%	36 ± 7 µM	1750 ± 426 µM	30 fold	~22 fold	–	–
CC(=O)Nc1ccc(-c2csc(N)n2)cc1-c1ccc(C)cc1 [Compound 10]	80.9 ± 5.5%	174 ± 7 µM	–	–	–	strongly inhibited the protein	up to 6.5 fold
CC(=O)Nc1ccc(-c2csc(N)n2)cc1C1=CCNCC1 [Compound 11]	84.8 ± 3.4%	188 ± 8 µM	576 ± 146 µM	–	–	–	up to 6.5 fold
